1 molecule from patent publication US20240316012A1, “METHODS FOR TREATING LYMPHOMA” (Northwestern University, priority 2023, published 2024) can be followed below.

Structures are written as SMILES.

For the assay, the system named is AP-1 family transcription factors. Description: ATAC-seq transcription factor footprint analysis after inhibitor incubation. The class given is cell-based, mouse. Conditions: BMS-303141 5 μM, 3 hours in vitro vs DMSO. The procedure:
Preparation of mouse and human ATAC-seq libraries. Ex vivo: For mouse ATAC-seq, ITK-SYK^CD4-creERT2, or ITK-SYK^CD4-creERT2; Pdcd1^−/− mice received a single dose of 2 mg tamoxifen. Five days after injection, single-cell suspensions were generated from the spleens and 50,000 eGFP^+ FACS-sorted cells were used for the transposase reaction. For human ATAC-seq, 50,000 malignant cells from CTCL patients with and without PDCD1 mutation were sorted by FACS as described above. The transposase reaction was performed as previously described^81. […] The reaction was monitored after 4 cycles with qPCR using 5 μl PCR reaction mixture and the same primers in 15 μl total volume (KK4617, Roche). Cycles were added as calculated, then the amplified samples were purified, and size selected using SpeedBeads (GE65152105050250, Sigma) in 22% PEG. […]
ATAC-seq analysis. […] Next, reads were aligned to the mm9 genome using Bowtie2 (v2.4.0)^71. […] To filter properly mapped reads, Applicants used Samtools with the following options: exclude multi-mapped reads (MAPQ<30) and reads with flag 1796 or 1804. Next, Samtools with option “-f 2” was used to filter properly paired reads. […] Next, Applicants filtered for nucleosome-free reads (0-100 bp) as previously described^44. […]

For `COc1ccc(-c2ccccc2)cc1NS(=O)(=O)c1cc(Cl)cc(Cl)c1O` [BMS-303141], the “AP-1 footprints in Pdcd1 deleted cells in comparison to cells with intact PD-1 pathway” value is given as “de-enriched”.
